The values below come from patent US7414041B2 (Trustees Of Tufts College, priority 1991, dated 2008).

For test [1], the system named is E. coli Class A Tc^r (DI-299). Type of test: cell-based.
A further test deals with S. aureus Tc^s (RN450). Put plainly: susceptibility testing MIC/MLC, drug alone. Type of test: cell-based.
The subject of test [2] is E. faecalis Tc^s (ATCC9790r). Put plainly: susceptibility testing MIC/MLC, drug alone. In kind it is cell-based.
The next test deals with S. aureus Tc^r (RN4250). Type of test: cell-based. To be noted: Tc^r RN4250.
The target of a further test is T1, efflux protein (Escherichia coli, UniProt P02980).
T1 sequence (P02980 1-401): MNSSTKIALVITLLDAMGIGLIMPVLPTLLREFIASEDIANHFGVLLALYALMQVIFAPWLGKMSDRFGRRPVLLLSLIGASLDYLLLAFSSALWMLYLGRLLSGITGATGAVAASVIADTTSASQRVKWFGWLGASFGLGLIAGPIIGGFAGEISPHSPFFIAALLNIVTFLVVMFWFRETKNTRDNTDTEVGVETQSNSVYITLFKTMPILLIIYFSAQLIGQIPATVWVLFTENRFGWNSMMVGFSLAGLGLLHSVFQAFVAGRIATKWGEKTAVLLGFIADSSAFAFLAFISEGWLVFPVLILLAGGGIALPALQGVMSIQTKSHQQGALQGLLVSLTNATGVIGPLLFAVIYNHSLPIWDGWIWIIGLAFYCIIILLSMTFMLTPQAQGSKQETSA
Put plainly: everted membrane vesicle assay, blocking activity of 13-S-derivatives (Ki). Type of test: biochemical.

Test [3] deals with E. faecalis Tc^r (M) (ATCC9790r/Tet M). In kind it is cell-based.
Test [4] relates to E. coli Class β Tc^r (DI-209). In kind it is cell-based.
Test [5] concerns E. coli Tc^s (MI 300-225). Put plainly: susceptibility testing MIC/MLC, drug alone. In kind it is cell-based.
Test [6] concerns E. faecalis Tc^r (L) (ATCC9790r/Tet L). Type of test: cell-based. To be noted: Tc^r (L).

≈ marks a conversion by molar mass, not a printed value. Read-outs that look alike come from different tables or passages of the source.

Turning to `CCSCC1c2cccc(O)c2C(=O)C2=C(O)C3(O)C(=O)C(C(N)=O)=C(O)C(N(C)C)C3CC21` (stereo not drawn) [Ethyl, 6-deoxy-13-(ethylmercapto) tetracycline], the “MIC” value came to 14 ± 4 µg in test [1] (1st column); 46 ± 6 µg in test [1] (2nd column); 0.5 ± 0.25 µg with S. aureus Tc^s (RN450); 1 ± 0.6 µg in test [2] (1st column); 40 ± 0.25 µg in [2] (2nd column); 5 ± 2 µg against S. aureus Tc^r (RN4250). Moreover, the “MIC” value in test [3] (1st column) was 25 ± 6 µg; in test [3] (2nd column), greater than 200 µg; in test [4] (1st column), 36 ± 16 µg; in test [4] (2nd column), 60 ± 10 µg; in test [5] (Tc^s, 1st column) it was 6 ± 0.26 µg; in test [5] (Tc^s, 2nd column), 60 µg. Also, the MIC in test [5] (susceptible E. coli) worked out at 5 µg/mL (≈ 10.2 µM); in test [6] (1st column), 4 ± 1 µg; in test [6] (2nd column), 100 ± 0.25 µg. For the same molecule, the figures for the “MLC” value with S. aureus Tc^s (RN450) (kills 99.9%) and with S. aureus Tc^r (RN4250) (kills 99.9%) were 4 µg and 30 ± 10 µg, respectively. For the same molecule, on efflux protein, the Ki was found to be 0.4 µg/mL (≈ 0.819 µM).
